Values of other authors, collected in patent publication US20250073140A1, “ANTIPERSPIRANT COMPOSITIONS CONTAINING A SYNERGISTIC COMBINATION OF COPPER, ALUMINUM, TIN, ZINC, ZIRCONIUM, AND SILVER SALTS, AND, METHODS OF USING” (priority 2023, published 2025).

Conditions: literature report

Structure (SMILES): [Cl][Cu][Cl] [copper chloride]
- antiperspirant activity: demonstrated to have antiperspirant activity
